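48-hour exposure; five concentrations; linearly interpolated endpoints. At the TGI there is no net growth.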
How the values were obtained:
Assay in all cases: inhibition of tumour cell growth, NCI panel, 48 h
[1] = system: T-47D breast
[2] = system: HL-60(TB) leukemia
[3] = system: A498 renal
[4] = system: SF-295 CNS
[5] = system: MOLT-4 leukemia
[6] = system: DU-145 prostate
[7] = system: TK-10 renal
[8] = system: UACC-257 melanoma
[9] = system: SK-MEL-5 melanoma
[10] = system: HS 578T breast
[11] = system: MDA-N
[12] = system: NCI-H522 lung
[13] = system: EKVX NSCLC
[14] = system: LOX IMVI melanoma
[15] = system: SN12C renal
[16] = system: M14 melanoma
[17] = system: SF-268 CNS
[18] = system: UACC-62 melanoma
[19] = system: NCI/ADR-RES ovarian
[20] = system: SNB-75 CNS

| SMILES | TGI [1] | TGI [2] | TGI [3] | TGI [4] | TGI [5] | TGI [6] | TGI [7] | TGI [8] | TGI [9] | TGI [10] | TGI [11] | TGI [12] | TGI [13] | TGI [14] | TGI [15] | TGI [16] | TGI [17] | TGI [18] | TGI [19] | TGI [20] |
| --- | --- | --- | --- | --- | --- | --- | --- | --- | --- | --- | --- | --- | --- | --- | --- | --- | --- | --- | --- | --- |
| CC(CC(=O)CO[C@H]1[C@H](O)[C@@H](O)[C@@H](O)[C@@H]2NC(=O)c3c(cc4c(c3O)OCO4)[C@H]21)OC1OC(CO)C(O)C(O)C1O (some centres not stated) | 0.894 µM | 2.45 µM | 4.39 µM | 5.65 µM | 3.54 µM | 0.664 µM | 1.55 µM | 6.19 µM | 1.48 µM | 3.76 µM | 3.91 µM | 1.23 µM | 3.46 µM | 1.32 µM | 2.14 µM | 2.17 µM | 3.81 µM | 4.17 µM | 3.97 µM | 0.884 µM |
| COc1cc2c(cc1OC)C1Cc3ccccc3CCN1CC2 (configuration not stated) | > 100 µM | > 100 µM | > 100 µM | > 100 µM | > 100 µM | > 100 µM | > 100 µM | > 100 µM | > 100 µM | > 100 µM | > 100 µM | > 100 µM | > 100 µM | > 100 µM | > 100 µM | > 100 µM | > 100 µM | > 100 µM | > 100 µM | > 100 µM |
| CC(C)Nc1[nH]c(C(=O)c2ccccc2)c(N)c1C(=S)Nc1ccccc1 | > 100 µM | > 100 µM | > 100 µM | > 100 µM | > 100 µM | > 100 µM | > 100 µM | 46.7 µM | 74.1 µM | > 100 µM | > 100 µM | > 100 µM | > 100 µM | 80.4 µM | > 100 µM | 48.5 µM | > 100 µM | 35.2 µM | > 100 µM | > 100 µM |
| OC1c2ccccc2[C@@H]2[C@H]1[C@@H](c1ccccc1)C1(Cc3ccccc3C1O)[C@H]2c1ccccc1 (some centres not stated) | 22.5 µM | 4.47 µM | 23.6 µM | 18.9 µM | 8.57 µM | 22 µM | 29.7 µM | 11.1 µM | 18.2 µM | 25.1 µM | 13.7 µM | 14.2 µM | 19.2 µM | 7.04 µM | 3.29 µM | 17.1 µM | 24.1 µM | 20.6 µM | 16.6 µM | 21.5 µM |
| Nc1nc(Cl)c(C=O)c(NCC2(CO)CC(CCc3ccccc3)C2)n1 (configuration not stated) | 31 µM | 3.34 µM | 42.1 µM | 27 µM | 9.01 µM | 30.8 µM | 62.4 µM | 21.3 µM | 20.3 µM | 84.6 µM | 18.1 µM | 3.56 µM | 14.1 µM | 10.8 µM | 19 µM | 6.25 µM | 36.5 µM | 16.2 µM | 47.6 µM | 37.5 µM |
| CC[C@@H](CCCC[C@@H]1CC[C@H]2CC(=O)C[C@@H]12)OC | > 100 µM | > 100 µM | > 100 µM | > 100 µM | > 100 µM | > 100 µM | > 100 µM | > 100 µM | > 100 µM | > 100 µM | > 100 µM | > 100 µM | > 100 µM | > 100 µM | > 100 µM | > 100 µM | > 100 µM | > 100 µM | > 100 µM | > 100 µM |
| Cc1nc2c(o1)C(=O)c1ccccc1C2=NC1CCCCC1N (configuration not stated) | 1.86 µM | 0.749 µM | 3.12 µM | – | 1.46 µM | 2.8 µM | 3.84 µM | 0.321 µM | 0.252 µM | 2.76 µM | 0.343 µM | 2.33 µM | 2.92 µM | 0.66 µM | 1.16 µM | 1.53 µM | 3.82 µM | 0.318 µM | 1.2 µM | 0.564 µM |
| CC(C)(C)c1cc(C(=O)/C=C/c2ccc(O)c(O)c2O)cc(C(C)(C)C)c1O | 13.3 µM | 5.82 µM | 34.4 µM | 27.8 µM | 28.9 µM | 35.6 µM | 18.3 µM | 10.6 µM | 19 µM | > 45.1 µM | 28.9 µM | 4.94 µM | 54 µM | 24.3 µM | 13.8 µM | 20.6 µM | > 51.4 µM | 18.8 µM | 14.8 µM | 12.6 µM |
| COC(=O)c1ccc2c(c1)CC1(C2)Cc2cc3c(c(C(=O)OC)c2C1)CCCC3 (configuration not stated) | > 100 µM | > 100 µM | > 100 µM | > 100 µM | > 100 µM | > 100 µM | > 100 µM | > 100 µM | 42 µM | > 100 µM | > 100 µM | > 100 µM | > 100 µM | > 100 µM | > 100 µM | – | > 100 µM | > 100 µM | > 100 µM | > 100 µM |
| Cc1cc(S(N)(=O)=O)c(SCc2nc(N)nc(N(C)C)n2)cc1Cl | > 10 µM | > 10 µM | > 10 µM | > 10 µM | > 10 µM | > 10 µM | > 10 µM | > 10 µM | > 10 µM | > 10 µM | > 10 µM | > 10 µM | > 10 µM | > 10 µM | > 10 µM | > 10 µM | > 10 µM | – | > 10 µM | > 10 µM |
